# Laboratory results: patent US7049336B2, “Method for diagnosing neuronal diseases and for treating primary hemostasis deficiency” (Max-Delbruck-Centrum fur Molekularc Medizin, priority 2000, dated 2006)
# Test system: TPH(−/−)-mice
# Test: Bleeding time (disturbed hemostasis) in TPH(−/−)-mice after intracardial injection
# Assay type: in vivo, mouse
# Details: for Effect on prolonged bleeding time phenotype: TPH(−/−)-mice
# Source text: FIG. 3. Disturbed hemostasis in TPH(−/−)-mice. • A. Prolonged bleeding times of TPH(−/−)-animals. […] The 5-HT-amounts applied result in 1/10 and the ten-fold of the normal blood concentrations. • C. […] The effect is specific for the TPH(−/−)-mice, whereas control-animals are not affected.
Compound,"Effect on prolonged bleeding time phenotype (intracardial 5-HT-injection, amounts result in 1/10 and the ten-fold of the normal blood concentrations)",Effect on prolonged bleeding time phenotype (intracardial von Willebrand-factor injection),"Effect on bleeding time in control-animals (control-animals, intracardial von Willebrand-factor injection)"
"NCCc1c[nH]c2ccc(O)cc12 [5-HT, serotonin, reference compound]",Healing of the phenotype,–,–
von Willebrand-factor: commercially available von Willebrand-factor (vWF),–,Healing of the phenotype,not affected
